In US12479822B2, “AHR agonists” (Eli Lilly and Company, priority 2021, dated 2025):

What follows are compounds tested against T1, Human AHR (Homo sapiens, UniProt P35869) (assay: hAHR Nuclear Translocation Assay). Settings: Jump-In T-REx HEK293 cells expressing AhR-EGFP chimera; 45 minutes incubation; ratio of EGFP fluorescent intensity in nuclear over cytosol; 20-point curve.
T1 construct: expressed in transfected cells
T1 sequence (P35869 11-848): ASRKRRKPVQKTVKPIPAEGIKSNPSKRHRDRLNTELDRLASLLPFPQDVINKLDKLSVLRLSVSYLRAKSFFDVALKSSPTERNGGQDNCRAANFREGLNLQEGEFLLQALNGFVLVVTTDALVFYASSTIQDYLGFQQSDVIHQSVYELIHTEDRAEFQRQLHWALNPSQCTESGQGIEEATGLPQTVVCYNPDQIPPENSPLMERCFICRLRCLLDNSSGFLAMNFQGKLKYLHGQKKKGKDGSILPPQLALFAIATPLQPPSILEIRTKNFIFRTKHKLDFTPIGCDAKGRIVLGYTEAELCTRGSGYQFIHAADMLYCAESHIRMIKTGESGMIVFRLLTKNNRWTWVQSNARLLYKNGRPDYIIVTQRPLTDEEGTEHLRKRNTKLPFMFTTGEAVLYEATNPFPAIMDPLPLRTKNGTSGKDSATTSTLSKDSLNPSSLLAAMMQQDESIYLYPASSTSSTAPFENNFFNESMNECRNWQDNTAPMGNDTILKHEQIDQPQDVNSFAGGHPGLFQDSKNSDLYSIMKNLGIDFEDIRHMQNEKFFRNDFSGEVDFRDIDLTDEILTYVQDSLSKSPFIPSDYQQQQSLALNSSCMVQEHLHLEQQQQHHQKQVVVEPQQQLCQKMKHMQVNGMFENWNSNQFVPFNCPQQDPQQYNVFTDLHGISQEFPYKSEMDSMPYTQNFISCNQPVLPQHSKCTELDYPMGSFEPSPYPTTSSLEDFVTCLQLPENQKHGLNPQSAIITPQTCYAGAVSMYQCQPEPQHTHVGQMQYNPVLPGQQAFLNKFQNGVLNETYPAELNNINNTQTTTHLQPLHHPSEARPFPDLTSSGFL
Assay type: cell-based
Procedure: Stable cell lines were established using Jump-In™ T-REx™ HEK293 Retargeting Kit (Life Technologies). Human AHR cDNA was cloned into the pJTI R4 CMV-TO EGFP vector. The EGFP was cloned to the C-terminal of AHR to form AhR-EGFP chimera. The pJTI R4 CMV-TO AhR-EGFP vector was transfected using FuGENE® HD into Jump-In™ T-REx™ HEK293 cells. Transfected cells were selected using 2.5 mg/ml G418 for 10 to 14 days, then expanded, harvested, and suspended in freeze media (FBS with 8% DMSO) at 2×10^7 cells/ml, and aliquots were stored in liquid nitrogen. […] On the assay date, compound was serially diluted (1:2) into 384-well nunc plates with DMSO using acoustic dispensing (ECHO). The dose response was a 20-point curve. Compound was resuspended in 40 μl of DMEM plus 0.1% BSA. The culture media was damped and 25 μl of DMEM plus 0.1% BSA was added, then 25 μl of compound in DMEM plus 0.1% BSA was added into cell plates. Cells were incubated with compounds at 37° C. and 5% CO2 for 45 minutes. The final DMSO concentration was 0.2%. The media was damped after 45 minutes of incubation. The cells were fixed with 40 μl of cold methanol (−20° C.) for 20 minutes. The methanol was damped and 50 μl of DPBS containing 1 μg/ml Hochst was added into the cell plates. The intensity of EGFP was quantitated by using OPERA PHENIX® or Operetta™ high content image system (Perkin Elmer) with 20× Water Objective and five field per well. The ratio of EGFP fluorescent intensity in nuclear over cytosol was analyzed using a 4-parameter nonlinear logistic equation to determine the potency of AHR agonists.

Point of comparison: `CNc1ccc2cc(C(=O)Nc3ccc(OC)cc3)c(=O)n(C)c2c1` [Example 46, N-(4-Methoxyphenyl)-1-methyl-7-(methylamino)-2-oxo-quinoline-3-carboxamide], EC50 0.00221 µM. Against it:
- Cn1c(=O)c(C(=O)Nc2ccccc2)cc2ccc(Br)cc21 [Example 40, 7-Bromo-1-methyl-2-oxo-N-phenyl-quinoline-3-carboxamide] — 2.7-fold lower, 0.000831 µM
- Cc1ccc(NC(=O)c2cc3cccc4c3n(c2=O)CC4)nc1 [Example 41, N-(5-Methyl-2-pyridyl)-11-oxo-1-azatricyclo[6.3.1.04, 12]dodeca-4(12),5,7,9-tetraene-10-carboxamide] — 2.8-fold higher, 0.00624 µM
- O=C(Nc1ccccn1)c1cc2cccc3c2n(c1=O)CC3 [Example 42, 11-Oxo-N-(2-pyridyl)-1-azatricyclo[6.3.1.04,12]dodeca-4(12),5,7,9-tetraene-10-carboxamide] — 1.8-fold higher, 0.00396 µM
- COc1ccc(NC(=O)c2cc3ccc(C)cc3n(C)c2=O)cc1 [Example 44, N-(4-Methoxyphenyl)-1,7-dimethyl-2-oxo-quinoline-3-carboxamide] — 3.7-fold lower, 0.000595 µM
- COc1ccc(NC(=O)c2cc3ccc(C4CC4)cc3n(C)c2=O)cc1 [Example 45, 7-Cyclopropyl-N-(4-methoxyphenyl)-1-methyl-2-oxo-quinoline-3-carboxamide] — within 1.5-fold, 0.00214 µM
- COc1ccc(NC(=O)c2cc3ccc(N(C)C)cc3n(C)c2=O)cc1 [Example 47, 7-(Dimethylamino)-N-(4-methoxyphenyl)-1-methyl-2-oxo-quinoline-3-carboxamide] — 8.1-fold higher, 0.018 µM
- CN(C)CCNc1cccc2c1cc(C(=O)Nc1ccccc1)c(=O)n2C [Example 48, 5-[2-(Dimethylamino)ethylamino]-1-methyl-2-oxo-N-phenyl-quinoline-3-carboxamide] — 9.6-fold higher, 0.0213 µM
- CN(C)CCNc1ccc2c(c1)cc(C(=O)Nc1ccccc1)c(=O)n2C [Example 49, 6-[2-(Dimethylamino)ethylamino]-1-methyl-2-oxo-N-phenyl-quinoline-3-carboxamide] — 4.1-fold higher, 0.009 µM
- CN(C)CCNc1cccc2cc(C(=O)Nc3ccccc3)c(=O)n(C)c12 [Example 50, 8-[2-(Dimethylamino)ethylamino]-1-methyl-2-oxo-N-phenyl-quinoline-3-carboxamide] — 12-fold higher, 0.0268 µM
- CN(C)CCNc1cccc2c1cc(C(=O)Nc1ccc(F)cn1)c(=O)n2C [Example 51, 5-[2-(Dimethylamino)ethylamino]-N-(5-fluoro-2-pyridyl)-1-methyl-2-oxo-quinoline-3-carboxamide] — 7.4-fold higher, 0.0164 µM
- CN(C)CCNc1ccc2c(c1)cc(C(=O)Nc1ccc(F)cn1)c(=O)n2C [Example 52, 6-[2-(Dimethylamino)ethylamino]-N-(5-fluoro-2-pyridyl)-1-methyl-2-oxo-quinoline-3-carboxamide] — 9.2-fold higher, 0.0203 µM
- CN(C)CCNc1cccc2c1cc(C(=O)Nc1ccccn1)c(=O)n2C [Example 53, 5-[2-(Dimethylamino)ethylamino]-1-methyl-2-oxo-N-(2-pyridyl)quinoline-3-carboxamide] — 7.3-fold higher, 0.0162 µM
- CN(C)CCNc1cccc2c1cc(C(=O)Nc1ncc(C(F)(F)F)cn1)c(=O)n2C [Example 54, 5-[2-(Dimethylamino)ethylamino]-1-methyl-2-oxo-N-[5-(trifluoromethyl)pyrimidin-2-yl]quinoline-3-carboxamide] — 8.3-fold higher, 0.0183 µM
- CN(C)CCNc1ccc2c(c1)cc(C(=O)Nc1ccccn1)c(=O)n2C [Example 55, 6-[2-(Dimethylamino)ethylamino]-1-methyl-2-oxo-N-(2-pyridyl)quinoline-3-carboxamide] — 18-fold higher, 0.0406 µM
- COc1ccc(NC(=O)c2cc3ccc(NCCN(C)C)cc3n(C)c2=O)cc1 [Example 56, 7-[2-(Dimethylamino)ethylamino]-N-(4-methoxyphenyl)-1-methyl-2-oxo-quinoline-3-carboxamide] — 36-fold higher, 0.0792 µM
- CN(C)CCNc1cccc2c1cc(C(=O)Nc1ncc(F)cn1)c(=O)n2C [Example 57, 5-[2-(Dimethylamino)ethylamino]-N-(5-fluoropyrimidin-2-yl)-1-methyl-2-oxo-quinoline-3-carboxamide] — 28-fold higher, 0.0628 µM
- Cn1c(=O)c(C(=O)Nc2ccccc2)cc2cc(OCCO)ccc21 [Example 58, 6-(2-Hydroxyethoxy)-1-methyl-2-oxo-N-phenyl-quinoline-3-carboxamide] — 3.4-fold higher, 0.00745 µM
- Cn1c(=O)c(C(=O)Nc2ccccn2)cc2cc(OCCO)ccc21 [Example 59, 6-(2-Hydroxyethoxy)-1-methyl-2-oxo-N-(2-pyridyl)quinoline-3-carboxamide] — 8.7-fold higher, 0.0192 µM
- Cn1c(=O)c(C(=O)Nc2ccccc2)cc2c(OCCO)cccc21 [Example 60, 5-(2-Hydroxyethoxy)-1-methyl-2-oxo-N-phenyl-quinoline-3-carboxamide] — 1.6-fold lower, 0.0014 µM
- Cn1c(=O)c(C(=O)Nc2ccccc2)cc2ccc(OCCO)cc21 [Example 61, 7-(2-Hydroxyethoxy)-1-methyl-2-oxo-N-phenyl-quinoline-3-carboxamide] — 7.3-fold higher, 0.0161 µM
- Cn1c(=O)c(C(=O)Nc2ccccc2)cc2cc(NCCO)ccc21 [Example 62, 6-(2-Hydroxyethylamino)-1-methyl-2-oxo-N-phenyl-quinoline-3-carboxamide] — 2.7-fold higher, 0.006 µM
- Cn1c(=O)c(C(=O)Nc2ccccc2)cc2c(NCCO)cccc21 [Example 63, 5-(2-Hydroxyethylamino)-1-methyl-2-oxo-N-phenyl-quinoline-3-carboxamide] — within 1.5-fold, 0.00191 µM
- Cn1c(=O)c(C(=O)Nc2ncc(F)s2)cc2c(NCCO)cccc21 [Example 64, N-(5-Fluorothiazol-2-yl)-5-(2-hydroxyethylamino)-1-methyl-2-oxo-quinoline-3-carboxamide] — 24-fold higher, 0.0529 µM
- Cn1c(=O)c(C(=O)Nc2ccccn2)cc2c(NCCO)cccc21 [Example 65, 5-(2-Hydroxyethylamino)-1-methyl-2-oxo-N-(2-pyridyl)quinoline-3-carboxamide] — 3-fold higher, 0.00669 µM
- Cn1c(=O)c(C(=O)Nc2ccc(F)cn2)cc2cc(NCCO)ccc21 [Example 66, N-(5-Fluoro-2-pyridyl)-6-(2-hydroxyethylamino)-1-methyl-2-oxo-quinoline-3-carboxamide] — 24-fold higher, 0.0539 µM
- Cn1c(=O)c(C(=O)Nc2ccc(F)cn2)cc2c(NCCO)cccc21 [Example 67, N-(5-Fluoro-2-pyridyl)-5-(2-hydroxyethylamino)-1-methyl-2-oxo-quinoline-3-carboxamide] — within 1.5-fold, 0.00192 µM
- Cn1c(=O)c(C(=O)Nc2ncc(F)cn2)cc2c(NCCO)cccc21 [Example 68, N-(5-Fluoropyrimidin-2-yl)-5-(2-hydroxyethylamino)-1-methyl-2-oxo-quinoline-3-carboxamide] — 37-fold higher, 0.0812 µM
- Cn1c(=O)c(C(=O)Nc2ncc(C(F)(F)F)cn2)cc2c(NCCO)cccc21 [Example 69, 5-(2-Hydroxyethylamino)-1-methyl-2-oxo-N-[5-(trifluoromethyl)pyrimidin-2-yl]quinoline-3-carboxamide] — 3-fold higher, 0.00666 µM
- Cn1c(=O)c(C(=O)Nc2ccccc2)cc2ccc(NCCO)cc21 [Example 70, 7-(2-Hydroxyethylamino)-1-methyl-2-oxo-N-phenyl-quinoline-3-carboxamide] — 6.8-fold higher, 0.0151 µM
